US20110172147A1, “NEUROPEPTIDE-2 RECEPTOR (Y-2R) AGONISTS” (priority 2009, published 2011)

What was measured:
Format in all cases: cell-based
Y5R = biological target: T1, Y5R (Homo sapiens, UniProt Q15761); experiment: CaFlux Assay (FLIPR), Y5R
T1 sequence (Q15761 1-445): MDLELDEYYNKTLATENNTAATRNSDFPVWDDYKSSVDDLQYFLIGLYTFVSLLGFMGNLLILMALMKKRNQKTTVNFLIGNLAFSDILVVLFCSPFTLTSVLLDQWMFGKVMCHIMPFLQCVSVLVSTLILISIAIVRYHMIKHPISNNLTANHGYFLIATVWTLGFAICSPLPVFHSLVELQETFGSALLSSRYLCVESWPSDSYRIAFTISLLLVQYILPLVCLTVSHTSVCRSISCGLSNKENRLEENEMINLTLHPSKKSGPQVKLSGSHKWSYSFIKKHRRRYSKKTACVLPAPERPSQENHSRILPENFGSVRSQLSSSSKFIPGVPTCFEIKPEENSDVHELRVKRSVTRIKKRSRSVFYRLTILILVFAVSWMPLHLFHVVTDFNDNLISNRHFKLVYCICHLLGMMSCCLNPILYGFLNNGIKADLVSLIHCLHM

Y4R = Y4R (Homo sapiens, UniProt P50391); experiment: CaFlux Assay (FLIPR), Y4R
Chain of Y4R (P50391 whole entry): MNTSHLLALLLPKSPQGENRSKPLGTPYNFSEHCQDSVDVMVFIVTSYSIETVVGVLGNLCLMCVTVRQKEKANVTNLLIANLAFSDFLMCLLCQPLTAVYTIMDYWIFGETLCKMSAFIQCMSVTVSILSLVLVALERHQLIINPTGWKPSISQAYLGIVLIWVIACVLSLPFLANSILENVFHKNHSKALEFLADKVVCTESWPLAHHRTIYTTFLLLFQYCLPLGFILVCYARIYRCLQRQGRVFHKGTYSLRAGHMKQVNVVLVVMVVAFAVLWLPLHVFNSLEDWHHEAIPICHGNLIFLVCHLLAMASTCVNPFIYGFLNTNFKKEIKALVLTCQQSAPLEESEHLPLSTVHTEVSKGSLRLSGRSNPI

hNPY2R [1] = biological target: T2, hNPY2R (Homo sapiens, UniProt P49146); experiment: CaFlux Assay (FLIPR), Y2R; parameters: expressed in transfected cells; host or cells: HEK-293 stably transfected with G protein chimera Gαqi9
T2 sequence (P49146 1-381): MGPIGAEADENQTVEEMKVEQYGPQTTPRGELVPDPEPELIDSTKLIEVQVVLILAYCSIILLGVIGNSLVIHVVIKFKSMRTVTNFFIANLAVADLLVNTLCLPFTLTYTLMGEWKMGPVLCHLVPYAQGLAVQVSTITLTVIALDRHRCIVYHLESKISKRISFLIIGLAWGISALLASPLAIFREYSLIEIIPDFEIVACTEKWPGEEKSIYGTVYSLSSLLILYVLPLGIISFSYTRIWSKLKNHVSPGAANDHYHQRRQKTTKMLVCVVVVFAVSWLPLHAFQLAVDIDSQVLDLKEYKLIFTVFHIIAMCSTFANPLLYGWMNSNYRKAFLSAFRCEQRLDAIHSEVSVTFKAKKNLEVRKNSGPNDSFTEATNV
Protocol: HEK-293 cells were stably transfected with the G protein chimera Gαqi9 and the hygromycin-B resistance gene were further transfected with the human NPY2 receptor and G418 antibiotic selection. Following selection in both hygromycin-B and G418, individual clones were assayed for their response to PYY. The transfected cells were cultured in DMEM medium supplemented with 10% fetal bovine serum, 50 μg/mL hygromycin-B, 2 mM glutamine, 100 U/mL penicillin, 100 μg/mL streptomycin and 250 μg/mL G418. Cells are harvested with trypsin-EDTA and counted using ViaCount reagent. The cell suspension volume is adjusted to 4.8×10^5 cells/mL with complete growth media. Aliquots of 25 μL are dispensed into 384 well Poly-D Lysine coated black/clear microplates (Falcon) and the microplates were placed in a 37° C. CO2 incubator overnight. Loading Buffer (Calcium-3 Assay Kit, Molecular Devices) was prepared by dissolving the contents of one vial (Express Kit) into […] Hank's Balanced Salt Solution containing 20 mM HEPES and 5 mM probenecid. Aliquots of 25 μL of diluted dye were dispensed into the cell plates and the plates are then incubated for 1 hour at 37° C. During the incubation, test compounds were prepared at 3.5× the desired concentration in HBSS (20 mM HEPES)/0.05% BSA/1% DMSO and transferred to a 384-well plate for use on FLIPR. After incubation, both the cell and compound plates were brought to the FLIPR and 20 μL of the diluted compounds were transferred to the cell plates by the FLIPR. During the assay, fluorescence readings were taken simultaneously from all 384 wells of the cell plate every 1.5 seconds. Five readings were taken to establish a stable baseline, and then 20 μL of sample was rapidly (30 μL/sec) and simultaneously added to each well of the cell plate. The fluorescence was continuously monitored before, during and after sample addition for a total elapsed time of 100 seconds. Responses (increase in peak fluorescence) in each well following addition were determined. The initial fluorescence reading from each well, prior to ligand stimulation, was used as a zero baseline value for the data from that well. The responses are expressed as % of maximal response of the positive control.

hNPY2R [2] = biological target: T2, hNPY2R; experiment: cAMP Agonist Assay, HEK293/hNPY2R; parameters: expressed in transfected cells; host or cells: HEK293/hNPY2R (G418 selection)
Protocol: In this example, the following materials were used: 384-well plate; Tropix cAMP-Screen Kit; cAMP ELISA System (Applied Biosystems, cat. #T1505; CS 20000); Forskolin (Calbiochem cat. # 344270); cells: HEK293/hNPY2R; growth medium: Dulbecco's modified eagle medium (D-MEM, Gibco); 10% Fetal bovine serum (FBS, Gibco), heat-inactivated; 1% Penicillin/Streptomycin (Pen 10000 unit/mL: Strep […], Gibco); […] G418 (Geneticin, Gibco cat. # 11811-031); and plating medium: DMEM/F12 w/o phenol red (Gibco); 10% FBS (Gibco, cat. # 10082-147), heat-inactivated; 1% Penicillin/Streptomycin (Gibco, cat. # 15140-122); […] G418 (Geneticin, Gibco, cat. # 11811-031).
On the first day, medium was discarded, and the monolayer cells were washed with 10 mL PBS per flask (T225). After decanting with PBS, 5 mL VERSENE (Gibco, cat #1504006) was used to dislodge the cells (5 min @37 C). The flask was gently tapped and the cell suspension was pooled. Each flask was rinsed with 10 mL plating medium and centrifuged at 1000 rpm for 5 min. The suspension was pooled and counted. The suspension was resuspended in plating medium at a density of 2.0×10^5 cells/mL for HEK293/hNPY2R. 50 microliters of cells (HEK293/hNPY2R-10,000 cells/well) were transferred into the 384-well plate using Multi-drop dispenser. The plates were incubated at 37° C. overnight. On the second day, the cells were checked for 75-85% confluence. The media and reagents were allowed to come to room temperature. Before the dilutions were prepared, the stock solution of stimulating compound in dimethyl sulphoxide (DMSO, Sigma, cat #D2650) was allowed to warm up to 32 C for 5-10 min. The dilutions were prepared in DMEM/F12 with 0.5 mM 3-Isobutyl-1-methylxanthine (IBMX, Calbiochem, cat #410957) and 0.5 mg/mL BSA. The final DMSO concentration in the stimulation medium was 1.1% with Forskolin concentration of 5 μM. The cell medium was tapped off with a gentle inversion of the cell plate on a paper towel. 50 μL of stimulation medium was placed per well (each concentration done in four replicates). The plates were incubated at room temperature for 30 min, and the cells were checked under a microscope for toxicity. After 30 minutes of treatment, the stimulation media was discarded and […] of Assay Lysis Buffer (provided in the Tropix kit) was added. The plates were incubated for 45 min @ 37° C. 20 μL of the lysate was transferred from stimulation plates into the pre-coated antibody plates (384-well) from the Tropix kit. 10 μL of AP conjugate and 20 μL of anti-cAMP antibody was added. The plates were incubated at room temperature while shaking for 1 hour. The plates were then washed 5 times with Wash Buffer, 70 μL per well for each wash. The plates were tapped to dry. 30 μL/well of CSPD/Saphire-II RTU substrate/enhancer solution was added and incubated for 45 min @ RT (shake). Signal for 1 sec/well in a Luminometer. (VICTOR-V) was measured.

Y1R = biological target: T3, Y1R (Homo sapiens, UniProt P25929); experiment: CaFlux Assay (FLIPR), Y1R
T3 sequence (P25929 1-384): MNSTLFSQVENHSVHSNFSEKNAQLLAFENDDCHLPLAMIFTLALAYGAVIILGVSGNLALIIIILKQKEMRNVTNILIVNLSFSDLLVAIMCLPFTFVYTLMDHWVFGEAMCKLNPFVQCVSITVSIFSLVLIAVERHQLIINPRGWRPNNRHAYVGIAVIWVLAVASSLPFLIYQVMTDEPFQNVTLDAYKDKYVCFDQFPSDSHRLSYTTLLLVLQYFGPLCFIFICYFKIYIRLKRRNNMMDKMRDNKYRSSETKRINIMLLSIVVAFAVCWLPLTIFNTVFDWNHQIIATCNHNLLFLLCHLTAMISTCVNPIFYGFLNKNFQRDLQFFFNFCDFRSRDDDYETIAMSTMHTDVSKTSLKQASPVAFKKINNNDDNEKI

Row | SMILES | EC50 (Y5R) [nM] | EC50 (Y4R) [nM] | EC50 (hNPY2R [1]) [nM] | EC50 (hNPY2R [2]) [nM] | EC50 (Y1R) [nM] | Y5R FLIPR agonist character (partial agonist mark) (Y5R; FLIPR)
1 | CCCCCCCCCCCCCCCC(=O)NCCOCCNC(=O)CCC(=O)NCCCC[C@H](NC(=O)[C@@H](NC(=O)COCCOCCOCCOCCOCCOC)[C@@H](C)CC)C(=O)N1CCN(c2ccc3ncn(CC(=O)N[C@@H](CCCNC(=N)N)C(=O)N[C@@H](Cc4c[nH]cn4)C(=O)N[C@@H](Cc4ccc(O)cc4)C(=O)N[C@@H](CC(C)C)C(=O)N[C@@H](CC(N)=O)C(=O)N[C@@H](Cc4c[nH]c5ccccc45)C(=O)N[C@H](C(=O)N[C@H](C(=O)N[C@@H](CCCNC(=N)N)C(=O)N[C@@H](CCC(N)=O)C(=O)N(C)[C@@H](CCCNC(=N)N)C(=O)N[C@@H](Cc4ccc(O)cc4)C(N)=O)[C@@H](C)O)C(C)C)c(=O)c3c2)CC1 [Example 12] | 527 | > 5000 | 0.097 | 0.09 | > 5000 | –
2 | CCCCCCCCCCCCCCCC(=O)NCCCCCC(=O)NCCCCCC(=O)N[C@H](C(=O)N[C@@H](CCCCNC(=O)CCOCCOCCOCCOCCOCCOCCOCCOCCOCCOCCOCCOCCOCCOCCOCCOC)C(=O)N1CCN(c2ccc3ncn(CC(=O)N[C@@H](CCCNC(=N)N)C(=O)N[C@@H](Cc4c[nH]cn4)C(=O)N[C@@H](Cc4ccc(O)cc4)C(=O)N[C@@H](CC(C)C)C(=O)N[C@@H](CC(N)=O)C(=O)N[C@@H](Cc4c[nH]c5ccccc45)C(=O)N[C@H](C(=O)N[C@H](C(=O)N[C@@H](CCCNC(=N)N)C(=O)N[C@@H](CCC(N)=O)C(=O)N(C)[C@@H](CCCNC(=N)N)C(=O)N[C@@H](Cc4ccc(O)cc4)C(N)=O)[C@@H](C)O)C(C)C)c(=O)c3c2)CC1)[C@@H](C)CC [Example 41] | 1320 | > 6000 | 0.04 | 0.17 | > 6000 | –
3 | CCCCCCCCCCCCCCCCCCCC(=O)N[C@@H](CCC(=O)O)C(=O)N[C@@H](CCC(=O)O)C(=O)N[C@H](C(=O)N[C@@H](CCCCNC(=O)CCOCCOCCOCCOCCOCCOCCOCCOCCOCCOCCOCCOCCOCCOCCOCCOC)C(=O)N1CCN(c2ccc3ncn(CC(=O)N[C@@H](CCCNC(=N)N)C(=O)N[C@@H](Cc4c[nH]cn4)C(=O)N[C@@H](Cc4ccc(O)cc4)C(=O)N[C@@H](Cc4c[nH]cn4)C(=O)N[C@@H](CC(N)=O)C(=O)N[C@@H](Cc4c[nH]c5ccccc45)C(=O)N[C@H](C(=O)N[C@H](C(=O)N[C@@H](CCCNC(=N)N)C(=O)N[C@@H](CCC(N)=O)C(=O)N[C@@H](CCCNC(=N)N)C(=O)N[C@@H](Cc4ccc(O)cc4)C(N)=O)[C@@H](C)O)C(C)C)c(=O)c3c2)CC1)[C@@H](C)CC [Example 56] | 8.73 | > 6000 | 0.098 | 0.013 | > 6000 | –
4 | CCCCCCCCCCCCCCCC(=O)NCCCCCC(=O)NCCOCCOCCOCCOCCOCCOCCOCCOCCOCCOCCOCCOCCOCCOCCOCCOCCOCCOCCOCCOCCOCCOCCOCCOCCC(=O)NCCCC[C@H](NC(=O)[C@@H](NC(C)=O)[C@@H](C)CC)C(=O)N1CCN(c2ccc3ncn(CC(=O)N[C@@H](CCCNC(=N)N)C(=O)N[C@@H](Cc4c[nH]cn4)C(=O)N[C@@H](Cc4ccc(O)cc4)C(=O)N[C@@H](CC(C)C)C(=O)N[C@@H](CC(N)=O)C(=O)N[C@@H](Cc4c[nH]c5ccccc45)C(=O)N[C@H](C(=O)N[C@H](C(=O)N[C@@H](CCCNC(=N)N)C(=O)N[C@@H](CCC(N)=O)C(=O)N(C)[C@@H](CCCNC(=N)N)C(=O)N[C@@H](Cc4ccc(O)cc4)C(N)=O)[C@@H](C)O)C(C)C)c(=O)c3c2)CC1 [Example 39] | 1950 | > 6000 | 0.038 | 0.07 | > 6000 | –
5 | CCCCCCCCCCCCCCCCCCCC(=O)N[C@@H](CCC(=O)N[C@@H](CCC(=O)NCCCC[C@H](NC(=O)[C@@H](NC(=O)CCOCCOCCOCCOCCOCCOCCOCCOCCOCCOCCOCCOC)[C@@H](C)CC)C(=O)N1CCN(c2ccc3ncn(CC(=O)N[C@@H](CCCNC(=N)N)C(=O)N[C@@H](Cc4c[nH]cn4)C(=O)N[C@@H](Cc4ccc(O)cc4)C(=O)N[C@@H](CC(C)C)C(=O)N[C@@H](CC(N)=O)C(=O)N[C@@H](Cc4c[nH]c5ccccc45)C(=O)N[C@H](C(=O)N[C@H](C(=O)N[C@@H](CCCNC(=N)N)C(=O)N[C@@H](CCC(N)=O)C(=O)N(C)[C@@H](CCCNC(=N)N)C(=O)N[C@@H](Cc4ccc(O)cc4)C(N)=O)[C@@H](C)O)C(C)C)c(=O)c3c2)CC1)C(=O)O)C(=O)O [Example 24] | – | – | – | – | – | P.A
